Reference: US20250257034A1, “INDOLE DERIVATIVES AS SEROTONERGIC AGENTS USEFUL FOR THE TREATMENT OF DISORDERS RELATED THERETO” (priority 2023, published 2025)

Assays:
[1] = Mouse liver microsomes stability; type: in vitro ADME; settings: mouse liver microsomes
Experimental: The objective of this study was to estimate in vitro metabolic stability of exemplary compounds of Formula (I) or a pharmaceutically acceptable salt, solvate, and/or prodrug thereof in pooled human, male rat, and male mouse liver microsomes. The concentrations of compounds in reaction systems were evaluated by LC-MS/MS for estimating the stability in pooled human, male rat, and male mouse liver microsomes. The in vitro intrinsic clearances of test compounds were determined as well.
A master solution in the “Incubation Plate” containing phosphate buffer, ultra-pure H2O, MgCl2 solution and liver microsomes was made according to Table 33. The mixture was pre-warmed at 37° C. water bath for 5 minutes.
40 μL of 10 mM nicotinamide adenine dinucleotide phosphate (NADPH) solution was added to each well. The final concentration of NADPH was 1 mM. The negative control samples were prepared by replacing NADPH with 40 μL of ultra-pure H2O. Samples were prepared in duplicate. Negative controls were prepared in singlet.
The reaction was started with the addition of 4 μL of 200 μM exemplary test compounds of the disclosure or control compounds to each master solution to get the final concentration of 2 μM. This study was performed in duplicate.
Aliquots of 50 μL were taken from the reaction solution at 0, 15, 30, 45, and 60 minutes. The reaction solutions were stopped by the addition of 4 volumes of cold methanol with IS (100 nM alprazolam, 200 nM imipramine, 200 nM labet alol and 2 μM ketoprofen). Samples were centrifuged at 3,220 g for 40 minutes. Aliquot of 90 μL of the supernatant was mixed with 90 μL of ultra-pure H2O and then was used for LC-MS/MS analysis.
LC/MS analysis was performed for all samples from this study using a Shimadzu liquid chromatograph separation system equipped with degasser DGU-20A5R; solvent delivery unit LC-30AD; system controller SIL-30AC; column oven CTO-30A; CTC Analytics HTC PAL System. Mass spectrometric analysis was performed using a Triple Quad™ 5500 instrument.
All calculations were carried out using Microsoft Excel. Peak area ratios of test compound to internal standard (listed in the below table) were determined from extracted ion chromatograms.
All calculations were carried out using Microsoft Excel. Peak areas were determined from extracted ion chromatograms. The slope value, k, was determined by linear regression of the natural logarithm of the remaining percentage of the parent drug vs. incubation time curve.
The in vitro half-life (in vitro t1/2) was determined from the slope value:
Conversion of the in vitro t1/2(min) into the in vitro intrinsic clearance (in vitro CLint, in μL/min/mg proteins) was done using the following equation (mean of duplicate determinations): […]
A master solution in the “Incubation Plate” containing phosphate buffer, ultra-pure H2O, MgCl2 solution and liver microsomes was made according to Table 63. The mixture was pre-warmed at 37° C. water bath for 5 minutes.
40 μL of 10 mM NADPH solution was added to each well. The final concentration of NADPH was 1 mM. The negative control samples were prepared by replacing NADPH with 40 μL of ultra-pure H2O. Samples were prepared in duplicate. Negative controls were prepared in singlet.
Conversion of the in vitro t1/2(min) into the in vitro intrinsic clearance (in vitro C Lt, in μL/min/mg proteins) was done using the following equation (mean of duplicate determinations): […]

human 5-HT1A receptor = molecular target: T1, human 5-HT1A receptor (Homo sapiens, UniProt P08908); assay: Human 5-HT1A radioligand binding assay ([3H]-8-Hydroxy-DPAT); design: expressed in transfected cells; host or cells: HTR1A&Gα15-CHO
T1 sequence (P08908 1-422): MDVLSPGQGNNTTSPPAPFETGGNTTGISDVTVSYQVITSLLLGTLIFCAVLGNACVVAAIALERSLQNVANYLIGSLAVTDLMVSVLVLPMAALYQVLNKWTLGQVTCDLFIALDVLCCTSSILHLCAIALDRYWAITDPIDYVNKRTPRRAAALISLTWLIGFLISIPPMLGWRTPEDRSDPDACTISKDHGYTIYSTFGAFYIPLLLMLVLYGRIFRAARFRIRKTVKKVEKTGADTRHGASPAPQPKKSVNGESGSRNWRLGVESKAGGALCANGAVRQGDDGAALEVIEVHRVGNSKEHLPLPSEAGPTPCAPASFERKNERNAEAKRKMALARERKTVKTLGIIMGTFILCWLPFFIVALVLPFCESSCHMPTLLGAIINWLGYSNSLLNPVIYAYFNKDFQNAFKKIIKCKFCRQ
Experimental: The objective of this study was to evaluate the binding properties of test compounds on 5-hydroxytryptamine receptor 1A (5-HT1A).
1. The assay buffer was prepared following Table 21 below.
2. 8 doses of reference and test compounds were prepared starting from 10 mM stock solution as required by 5-fold serial dilutions with 100% (v/v) DMSO.
3. UniFilter-96 GF/B plate was pretreated: • i. 50 μl/well of 0.5% (v/v) PEI was added to UniFilter-96 G F/B plates. The plates were sealed and incubated at 4° C. for 3 hrs. • ii. After incubation, the plates were washed 3 times with ice-cold wash buffer (50 mM Tris, pH7.4).
4. Assay plate was prepared: • i. Cell membrane was diluted with assay buffer and 100 μl/well was added to 96 round well plates to reach a concentration of 20 μg/well. • ii. 8 concentrations of reference or test compounds were prepared and 50 μl/well was added to 96 round deep well plates. • iii. [3H]-8-Hydroxy-DPAT was diluted with assay buffer to 2 nM (4×final concentration) and 50 μl/well was added to 96 round well plates.
5. The plate was centrifuged at 1000 rpm for 30 secs and then agitated at 600 rpm, R.T. for 5 min.
6. The plates were sealed, and the plate was incubated at 27° C. for 90 min.
7. The incubation was stopped by vacuum filtration onto GF/B filter plates followed by 4 times washing with ice-cold wash buffer (50 mM Tris, pH7.4).
9. The filter plates were sealed and 40 μl/well of scintillation cocktail was added.
10. The plate was read by using a Microbeta^2 microplate counter.
1. For reference and test compounds, the results were expressed as % Inhibition, using the normalization equation: N=100-100x(U-C2)/(C1-C2), where U is the unknown value, C1 is the average of high controls, and C2 is the average of low controls.
2. The IC50 was determined by fitting percentage of inhibition as a […] of compound concentrations with Hill equation using XLfit.
The objective of this study was to evaluate the binding properties of test compounds on 5-hydroxytryptamine receptor 1A (5-HTA).
1. The assay buffer was prepared following Table 50 below.
3. UniFilter-96 G FIB plate was pretreated: • i. 50 μl/well of 0.5% (v/v) PEI was added to UniFilter-96 G FIB plates. The plates were sealed and incubated at 4° C. for 3 hrs. • ii. After incubation, the plates were washed 3 times with ice-cold wash buffer (50 mM Tris, pH7.4).
6. The plates were sealed and the plate was incubated at 27° C. for 90 min.

CN(C)CCc1c[nH]c2ccc(OCCOC(F)F)cc12 [Compound I-128, 2-(5-(2-(Difluoromethoxy)ethoxy)-1H-indol-3-yl)-N,N-dimethylethan-1-amine]
microsomal CLint at 2 μM ([1]; male, mouse, pooled liver microsomes, 2 μM compound, 0.5 mg/mL, read-out: CLint (μL/min/mg protein)): 66.7 µL/min/mg
half-life at 2 μM ([1]; male, pooled liver microsomes, 2 μM compound, 0.5 mg/mL): 20.8 min
CLint scaled at 2 μM ([1]; male, pooled liver microsomes, read-out: Scaled-up CLint): 292 mL/min/kg
Predicted hepatic CL [1]: 68.78 mL/min/kg
Remaining Percentage (%) ([1]; With Cofactors, 0 min): 100.00%
Remaining Percentage (%) ([1]; With Cofactors, 30 min): 37.09%
Remaining Percentage (%) ([1]; With Cofactors, 60 min): 13.52%
Remaining Percentage (%) ([1]; Without Cofactors, 0 min): 100.00%
Remaining Percentage (%) ([1]; Without Cofactors, 30 min): 89.52%
Remaining Percentage (%) ([1]; Without Cofactors, 60 min): 87.90%
IC50 (human 5-HT1A receptor): 87 nM
